Experimental data as given in patent publication US10898570B2, “Combination therapy with an anti-HER2 antibody-drug conjugate and a Bcl-2 inhibitor” (Genentech, Inc., priority 2015, dated 2021).

Legend:
[1] = tested on: Clone #17 T-DM1 resistant KPL-4 human breast cancer xenografts; experiment: xenograft study, tumor volume; format: in vivo, SCID beige mice
Description: For all xenograft studies, three million T-DM1-resistant KPL-4 breast cancer cells were implanted in #2/3 mammary fat pads of female SCID-beige mice. […] The results of these xenograft studies for xenografts of various clones of the T-DM1-resistant KPL-4 breast cancer cells are shown in FIGS. 5B and 6C.

[2] = cited from earlier work
[3] = tested on: T-DM1-resistant KPL-4 (HER2+) breast cancer cells; experiment: caspase 3/7 activation luminescence assay (Caspase-Glo); format: cell-based, human; conditions: 48 hours; T-DM1 0.1 or 1 μg/mL; GDC-0199 1, 2.5 or 5 μM
Experimental: (§1) In the present experiment, caspase 3/7 activation luminescence assay was performed using the Caspase-Glo® reagent (Promega) essentially following manufacturer's instructions. […]

[4] = tested on: KPL-4 parental cells; experiment: as above; format: cell-based, human
Experimental: as §1

[5] = tested on: Bcl-2; conditions: T-DM1 1.25 μg/mL; cell lines BT-474, MDA_361 and ZR-75-30
Experimental: Western blot analysis was performed as follows: Cells were lysed in corrected FLAG elution buffer (CFEB) (19.17 mM Tris (pH 7.5), 916.7 μM MgCl2, 92.5 mM NaCl and 0.1% Triton X-100) with protease and phosphatase inhibitors (Roche); in some cases 6 M urea was added. Cleared lysates were quantitated and equal amounts of proteins were reduced, alkylated, separated by SDS-PAGE, and transferred onto PVDF membranes (Invitrogen) following standard procedures. Western blotting was performed as recommended by the respective antibody manufacturers.
The effect of treatment with T-DM1 (1.25 μg/mL) alone or in combination with GDC-0199 (1.25 μM) was studied on various T-DM1 naïve HER2+ breast cancer cell lines.

[6] = tested on: Clone #17 T-DM1 resistant KPL-4 human breast cancer cell line; experiment: caspase 3/7 activation luminescence assay (Caspase-Glo); format: cell-based; conditions: 48 hours; 1 ug/mL T-DM1 alone or with indicated doses of GDC-0199
Experimental: as §1

[7] = weekly dosing with 2.4 mg/kg; cited from earlier work
[8] = tested on: HER2+ MDA-MB-361 breast cancer cells (T-DM1 naive); experiment: caspase 3/7 activation luminescent in vitro apoptosis assay; format: cell-based; conditions: 24 hours; five concentrations of GDC-0199, 9 concentrations of T-DM1
Experimental: (§2) In the present experiment, caspase 3/7 activation luminescence assay was performed using the Caspase-Glo® reagent (Promega) essentially following manufacturer's instructions. Assays were performed in the same manner as the viability assays except that drug incubation times were 24 hours and Caspase-Glo 3/7 (Promega) was used to measure apoptosis.
(§3) Caspase 3/7 activation luminescence assay was performed as described in Example 3.

[9] = tested on: HER2+ HCC1569 breast cancer cells (T-DM1 naive); experiment: as above; format: cell-based; conditions: 24 hours; five concentrations of GDC-0199, 9 concentrations of T-DM1
Experimental: as §2, §3

## CC1(C)CCC(CN2CCN(c3ccc(C(=O)NS(=O)(=O)c4ccc(NCC5CCOCC5)c([N+](=O)[O-])c4)c(Oc4cnc5[nH]ccc5c4)c3)CC2)=C(c2ccc(Cl)cc2)C1 [GDC-0199, 2-(1H-pyrrolo[2,3-b]pyridin-5-yloxy)-4-(4-((2-(4-chlorophenyl)-4,4-dimethylcyclohex-1-enyl)methyl)piperazin-1-yl)-N-(3-nitro-4-((tetrahydro-2H-pyran-4-yl)methylamino)phenylsulfonyl)benzamide]
[1]; 100 mg/kg
  tumor growth (tumor volume): no activity

## COc1cc2cc(c1Cl)N(C)C(=O)C[C@H](OC(=O)[C@H](C)N(C)C(C)=O)[C@]1(C)O[C@H]1[C@H](C)[C@@H]1C[C@@](O)(NC(=O)O1)[C@H](OC)/C=C/C=C(\C)C2 [maytansine]
[2]; 2.0 mg/m2 every 3 weeks, single dose or 3 consecutive days
  dose-limiting toxicity (DLT): gastrointestinal
[2]; at doses that could be safely delivered
  activity in the clinic: modest

## trastuzumab-MCC-DM1 [T-DM1]
[3]
  activation of caspases 3 and 7 (apoptosis): minimal effect
[4]; 24 hours of drug treatment
  activation of caspases 3 and 7 (apoptosis): no effect
[4]; 48 hours, T-DM1 0.1 or 1 μg/mL, GDC-0199 1, 2.5 or 5 μM
  activation of caspases 3 and 7 (apoptosis): robust activation
[1]; T-DM1 5 mg/kg administered once, GDC-0199 100 mg/kg qd×21
  tumor growth (tumor volume): no activity
[5]
  phosphorylation of Bcl-2 after treatment (Western blot): phosphorylation of Bcl-2
[6]
  activation of caspases 3 and 7 (apoptosis): minimal effect
[7]
  anti-tumor activity: anti-tumor activity
[8]
  caspase 3/7 activity (apoptosis): caspases 3 and 7 activation
[9]
  caspase 3/7 activity (apoptosis): does not induce apoptosis
